Laboratory results published in patent publication US6482413B1, “Vitamin B12 —biodegradable micro particulate conjugate carrier systems for peroral delivery of drugs, therapeutic peptides/proteins and vaccines” (Council of Scientific and Industrial Research, priority 2001, dated 2002).

Legend:
IF = IF (Homo sapiens, UniProt P27352); details: among b, d and e monocarboxylate isomers; cited from earlier work
VB12 transport system = details: oral uptake capacity; cited from earlier work
[1] = tested on: Streptozotocin induced diabetic rats; test: Antidiabetic activity of orally administered insulin loaded delivery systems; format: in vivo, rat
Protocol: The pharmacological availability was assessed by the above results.
Various insulin loaded drug delivery systems prepared were tested for antidiabetic activity in Streptozotocin induced diabetic rats and the results are briefed in summary section. These insulin drug delivery systems are orally administered to diabetic rats (n=number of animals). At various time intervals after feeding the rats were bled and their blood glucose levels determined.

intestinal enzymes = details: FIG. 3; same experimental conditions for free and entrapped insulin

Chain of IF (P27352 19-417): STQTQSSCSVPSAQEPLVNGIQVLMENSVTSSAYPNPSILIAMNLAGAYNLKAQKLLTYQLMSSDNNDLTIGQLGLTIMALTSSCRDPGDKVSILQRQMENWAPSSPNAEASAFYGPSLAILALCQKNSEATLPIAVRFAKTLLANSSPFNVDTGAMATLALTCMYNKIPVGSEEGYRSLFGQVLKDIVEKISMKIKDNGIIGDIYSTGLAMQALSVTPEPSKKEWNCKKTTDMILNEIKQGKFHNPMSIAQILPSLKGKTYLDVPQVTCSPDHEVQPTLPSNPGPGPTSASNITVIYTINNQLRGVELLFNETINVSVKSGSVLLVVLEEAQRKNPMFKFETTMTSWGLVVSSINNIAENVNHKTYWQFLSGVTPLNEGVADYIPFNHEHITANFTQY

Substance: ‘e’ monocarboxylate of VB12 [Conjugate 1b]
- affinity for IF (IF): highest affinity

Substance: Vitamin B12 [VB12]
- uptake of VB12 (VB12 transport system): 1 nmol/dose

Substance: insulin
- activity at 3rd, 4th, 5th and 6th hours [1]: no activity
- Degradation of insulin by digestive enzymes (intestinal enzymes): completely degraded
